Data reported in ChEMBL document CHEMBL1130750, “Heteroatom-substitution as a strategy for increasing the potency of competitive NMDA antagonists” (Bioorg Med Chem Lett, 1998).

Columns and labels:
Mus musculus = assay: In vivo minimum effective dose required to block NMDA induced lethality in Mice following i.p. administration; assay type: functional; conditions: ip, read-out: MED
Glutamate NMDA receptor [1] = assay: Compound was tested in vitro for inhibition of binding of [3H]-CGS- 19755 radioligand to NMDA receptor in rat brain membranes; assay type: cell membranes
Glutamate NMDA receptor [2] = assay: Compound was tested in vitro for its ability to inhibit depolarizations induced by 40 uM NMDA in a cortical slice (NMDA antagonist); assay type: functional
Glutamate NMDA receptor [3] = assay: In vitro ability to inhibit depolarizations induced by 40 uM NMDA in a cortical slice (NMDA antagonist); assay type: functional
Glutamate NMDA receptor [4] = assay: Compound was tested in vitro for its ability to inhibit depolarizations induced by 40 uM NMDA in a cortical slice(NMDA antagonist); assay type: functional
[5] = biological target: T1, Glutamate NMDA receptor (Rattus norvegicus) (UniProt P35439+Q00959+Q00960+Q00961+Q62645+Q8VHN2+Q9R1M7); assay: In vitro percent inhibition of depolarizations induced by 10 uM NMDA in a cortical slice (NMDA antagonist); assay type: functional
[6] = biological target: T1, Glutamate NMDA receptor (Rattus norvegicus); assay: In vitro percent inhibition of depolarizations induced by 3.2 uM NMDA in a cortical slice ( NMDA antagonist); assay type: functional

Structure (SMILES) | minimal effective dose (Mus musculus) | IC50 (Glutamate NMDA receptor [1]) | other results
O=C(O)[C@H]1C[C@@H](OCc2nn[nH]n2)CCN1 | 2.5 mg/kg | 280 nM | IC50 (Glutamate NMDA receptor [2]): 4700 nM
O=C(O)[C@H]1C[C@@H](CCCc2nnn[nH]2)CCN1 | 10 mg/kg |  | IC50 (Glutamate NMDA receptor [3]): 12400 nM
O=C(O)[C@H]1C[C@@H](Sc2nn[nH]n2)CCN1 |  | 110 nM | 
O=C(O)[C@H]1C[C@@H](CSc2nn[nH]n2)CCN1 |  | 1300 nM | 
O=C(O)[C@H]1C[C@@H](COCc2nn[nH]n2)CCN1 | 80 mg/kg | 8300 nM | IC50 (Glutamate NMDA receptor [2]): 34500 nM
O=C(O)[C@H]1C[C@@H](Cc2nnn[nH]2)CCN1 | 5 mg/kg | 17 nM | 
O=C(O)[C@H]1C[C@@H](CCc2nnn[nH]2)CCN1 | 20 mg/kg | 2300 nM | IC50 (Glutamate NMDA receptor [4]): 8100 nM
O=C(O)[C@H]1C[C@H](Sc2nn[nH]n2)CCN1 |  | 75 nM | inhibition [5]: 75%; inhibition [6]: 20%
